The term IC50 denotes the concentration that inhibits the measured activity by half.

The record followed here is patent US20250002487A1, “HETEROCYCLIC COMPOUNDS AND USES THEREOF” (Ventus Therapeutics U.S., Inc., priority 2021, published 2025).

The target in this assay is human-cGAS (h-cGAS) (Homo sapiens, UniProt Q8N884). Nature of the assay: hcGAS Kinase-Glo Assay. The class given is biochemical. The settings on record: 40 nM h-cGAS, 100 μM ATP, 100 μM GTP, 25 nM dsDNA, 3 h incubation, read-out: hcGAS potency IC50. The protocol: In some embodiments, the compounds of the instant disclosure may be tested for their human-cGAS (h-cGAS) inhibition activity using the methodology reported in Lama et al., “Development of human cGAS-specific small molecule inhibitors for repression of double stranded DNA (dsDNA)-triggered interferon expression”, Nature Communications 10, Article number: 2261 (2019), incorporated herein by reference. hcGAS Kinase-Glo Assay Compounds were tested for their human-cGAS (h-cGAS) inhibition activity using the methodology reported in Lama et al., “Development of human cGAS-specific small molecule inhibitors for repression of double stranded DNA (dsDNA)-triggered interferon expression”, Nature Communications 10. Article number: 2261 (2019), which is herein incorporated by reference in its entirety, with slight changes to some conditions as shown in Table B. The results of the assays, expressed in IC50 ranges are reported in Table C with the following designations: A represents an IC50 value <0.1 μM; B represents an IC50 value ≥0.1 μM and <0.5 μM; C represents an IC50 value ≥0.5 μM and <1.0 μM; D represents an IC50 value ≥1.0 μM. [table]
Background: Kinase-Glo reads ATP consumption through a luciferase reaction.

Chain of human-cGAS (h-cGAS) (Q8N884 whole entry): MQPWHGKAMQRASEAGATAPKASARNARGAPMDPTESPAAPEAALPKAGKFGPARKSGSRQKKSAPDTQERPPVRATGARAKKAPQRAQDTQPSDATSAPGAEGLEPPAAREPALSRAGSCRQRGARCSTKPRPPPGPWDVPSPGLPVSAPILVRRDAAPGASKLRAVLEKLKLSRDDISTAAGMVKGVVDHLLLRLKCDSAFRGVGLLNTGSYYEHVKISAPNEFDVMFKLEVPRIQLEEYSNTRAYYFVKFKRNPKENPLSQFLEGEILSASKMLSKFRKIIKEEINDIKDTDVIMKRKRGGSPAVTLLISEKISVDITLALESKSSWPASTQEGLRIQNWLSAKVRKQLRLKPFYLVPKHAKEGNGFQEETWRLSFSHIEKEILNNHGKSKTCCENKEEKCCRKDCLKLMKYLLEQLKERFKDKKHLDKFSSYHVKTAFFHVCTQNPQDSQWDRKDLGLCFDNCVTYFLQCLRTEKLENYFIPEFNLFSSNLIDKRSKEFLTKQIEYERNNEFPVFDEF

For the molecule `CSc1nnc(NC(=O)c2cc(-c3ncc4ccccc4n3)no2)s1` [Compound 153, N-(5-(Methylthio)-1,3,4-thiadiazol-2-yl)-3-(quinazolin-2-yl)isoxazole-5-carboxamide], the IC50 was 100 to 500 nM.
For `CSc1nnc(NC(=O)c2noc(-c3ccccc3)n2)s1` [Compound 236, N-(5-methylsulfanyl-1,3,4-thiadiazol-2-yl)-5-phenyl-1,2,4-oxadiazole-3-carboxamide] the value was 500 to 1000 nM.
For `CSc1nnc(NC(=O)c2cc(-c3cccc(OC(F)(F)F)c3)no2)s1` [Compound 83, N-(5-(methylthio)-1,3,4-thiadiazol-2-yl)-3-(3-(trifluoromethoxy)phenyl)isoxazole-5-carboxamide] the value was not below 1000 nM; for `CSc1nnc(NC(=O)c2noc(-c3ccccn3)n2)s1` [Compound 104, N-[5-(methylsulfanyl)-1,3,4-thiadiazol-2-yl]-5-(132yridine-2-yl)-1,2,4-oxadiazole-3-carboxamide], 500 to 1000 nM; for `Cc1nnc(NC(=O)c2onc3ccccc23)s1` [Compound 81, N-(5-methyl-1,3,4-thiadiazol-2-yl)benzo[c]isoxazole-3-carboxamide], not below 1000 nM.
For `O=C(Nc1nnc(-c2ccccc2F)s1)c1onc2ccccc12` [Compound 26, N-(5-(2-fluorophenyl)-1,3,4-thiadiazol-2-yl)benzo[c]isoxazole-3-carboxamide] the value was 100 to 500 nM; for `CSc1nnc(NC(=O)c2cc(-c3cccc4c3ncn4C)cc(=O)o2)s1` [Compound 274, 4-(1-methyl-1H-benzo[d]imidazol-4-yl)-N-(5-(methylthio)-1,3,4-thiadiazol-2-yl)-2-oxo-2H-pyran-6-carboxamide], 100 to 500 nM.
Take `O=C(Nc1nnc(-c2cncs2)s1)c1onc2ccccc12` [Compound 128, N-(5-(thiazol-5-yl)-1,3,4-thiadiazol-2-yl)benzo[c]isoxazole-3-carboxamide]: the IC50 was not below 1000 nM.
For `CSc1nnc(NC(=O)c2cn(Cc3ccccc3)nn2)s1` [Compound 42, 1-benzyl-N-(5-(methylthio)-1,3,4-thiadiazol-2-yl)-1H-1,2,3-triazole-4-carboxamide], the IC50 was not below 1000 nM.
In the case of `O=C(Nc1nnc(-c2ccccc2Cl)s1)c1onc2ccccc12` [Compound 22, N-(5-(2-chlorophenyl)-1,3,4-thiadiazol-2-yl)benzo[c]isoxazole-3-carboxamide] it was 100 to 500 nM; in that of `CSc1nnc(NC(=O)c2cc(-c3ccc(Cl)cc3)cc(=O)o2)s1` [Compound 243, 4-(4-chlorophenyl)-N-(5-methylsulfanyl-1,3,4-thiadiazol-2-yl)-6-oxo-pyran-2-carboxamide], 500 to 1000 nM.
In the case of `CSc1nnc(NC(=O)c2onc3ccc(CO)cc23)s1` [Compound 191, 5-(hydroxymethyl)-N-(5-(methylthio)-1,3,4-thiadiazol-2-yl)benzo[c]isoxazole-3-carboxamide] it was not below 1000 nM; in that of `CSc1nnc(NC(=O)c2cc(C(C)C)no2)s1` [Compound 82, 3-isopropyl-N-(5-(methylthio)-1,3,4-thiadiazol-2-yl)isoxazole-5-carboxamide], 500 to 1000 nM.
For `CSc1nnc(NC(=O)c2noc(N3CCCCC3)n2)s1` [Compound 101, N-[5-(methylthio)-1,3,4-thiadiazol-2-yl]-5-(piperidin-1-yl)-1,2,4-oxadiazole-3-carboxamide] the value was not below 1000 nM; for `O=C(O)c1cc(C(=O)Nc2nnc(-c3ccccc3Cl)s2)on1` [Compound 2, 5-((5-(2-chlorophenyl)-1,3,4-thiadiazol-2-yl)carbamoyl)isoxazole-3-carboxylic acid], less than 100 nM; for `CSc1nnc(NC(=O)c2cc(-c3cccc(Cl)c3)no2)s1` [Compound 209, 3-(3-chlorophenyl)-N-[5-(methylsulfanyl)-1,3,4-thiadiazol-2-yl]-1,2-oxazole-5-carboxamide], 500 to 1000 nM.
Take `O=C(Nc1nncs1)c1onc2c1ccc1cccnc12` [Compound 13, N-(1,3,4-thiadiazol-2-yl)isoxazolo[4,3-h]quinoline-3-carboxamide]: the IC50 is 500 to 1000 nM.
For `CSc1nnc(NC(=O)c2cc(-c3ccccc3)no2)s1` [Compound 208, N-[5-(methylsulfanyl)-1,3,4-thiadiazol-2-yl]-3-phenyl-1,2-oxazole-5-carboxamide] the value was 500 to 1000 nM; for `CSc1nnc(NC(=O)c2nnc(N3CCCC(O)C3)o2)s1` (stereo not shown) [Compound 109, 5-(3-hydroxypiperidin-1-yl)-N-(5-(methylthio)-1,3,4-thiadiazol-2-yl)-1,3,4-oxadiazole-2-carboxamide], not below 1000 nM; for `CSc1nnc(NC(=O)c2cc(-c3cccc4c3cnn4C)cc(=O)o2)s1` [Compound 269, 4-(1-methyl-1H-indazol-4-yl)-N-(5-(methylthio)-1,3,4-thiadiazol-2-yl)-2-oxo-2H-pyran-6-carboxamide], 100 to 500 nM.
For `Cc1nn(C)cc1-c1cc(C(=O)Nc2nnc(-c3ccccc3Cl)s2)on1` [Compound 54, N-(5-(2-chlorophenyl)-1,3,4-thiadiazol-2-yl)-3-(1,3-dimethyl-1H-pyrazol-4-yl)isoxazole-5-carboxamide] the value was 100 to 500 nM.
Turning to `CSc1nnc(NC(=O)c2cncc(-c3ccccn3)c2)s1` [Compound 72, N-(5-(methylthio)-1,3,4-thiadiazol-2-yl)-[2,3′-bipyridine]-5′-carboxamide], the concentration for half-maximal inhibition (IC50) is not below 1000 nM.
In the case of `COc1cccc2c1CCc1c-2noc1C(=O)Nc1nnc(SC)s1` [Compound 172, 6-Methoxy-N-(5-(methylthio)-1,3,4-thiadiazol-2-yl)-4,5-dihydronaphtho[1,2-c]isoxazole-3-carboxamide] it was not below 1000 nM.
In the case of `CSc1nnc(NC(=O)c2nnc(N3CCC(O)C3)o2)s1` (stereo not shown) [Compound 116, 5-(3-hydroxypyrrolidin-1-yl)-N-[5-(methylsulfanyl)-1,3,4-thiadiazol-2-yl]-1,3,4-oxadiazole-2-carboxamide], the 50% inhibitory concentration (IC50) was 500 to 1000 nM.
For `CSc1nnc(NC(=O)c2nc(Nc3ccccc3)no2)s1` [Compound 265, N-(5-(methylthio)-1,3,4-thiadiazol-2-yl)-3-(phenylamino)-1,2,4-oxadiazole-5-carboxamide] the value was 500 to 1000 nM.
For `O=C(Nc1nnc(-c2ccccc2Cl)s1)c1nc[nH]n1` [Compound 58, N-(5-(2-chlorophenyl)-1,3,4-thiadiazol-2-yl)-1H-1,2,4-triazole-3-carboxamide] the value was 500 to 1000 nM.
For `COc1cc(C(=O)Nc2nnc(-c3ccccc3Cl)s2)on1` [Compound 31, N-(5-(2-chlorophenyl)-1,3,4-thiadiazol-2-yl)-3-methoxyisoxazole-5-carboxamide] the value was 100 to 500 nM; for `CSc1nnc(NC(=O)c2cc(O)cc(-c3ccccc3)n2)s1` [Compound 200, 4-hydroxy-N-(5-(methylthio)-1,3,4-thiadiazol-2-yl)-6-phenylpicolinamide], not below 1000 nM.
With `CSc1nnc(NC(=O)c2nnc(N3CCC[C@H]3c3ccccc3)o2)s1` [Compound 126, (S)-N-(5-(methylthio)-1,3,4-thiadiazol-2-yl)-5-(2-phenylpyrrolidin-1-yl)-1,3,4-oxadiazole-2-carboxamide], the IC50 was in the range of 500 to 1000 nM.
In the case of `CSc1nnc(NC(=O)c2cc(-c3cccc(F)c3)no2)s1` [Compound 211, 3-(3-fluorophenyl)-N-[5-(methylsulfanyl)-1,3,4-thiadiazol-2-yl]-1,2-oxazole-5-carboxamide] it was 500 to 1000 nM.
With `CSc1nnc(NC(=O)c2cc(-c3ccc(F)cc3F)no2)s1` [Compound 48, 3-(2,4-difluorophenyl)-N-(5-(methylthio)-1,3,4-thiadiazol-2-yl)isoxazole-5-carboxamide], the IC50 lay in the range of 500 to 1000 nM.
With `CSc1nnc(NC(=O)c2cc(-c3cncs3)no2)s1` [Compound 141, N-(5-(methylthio)-1,3,4-thiadiazol-2-yl)-3-(thiazol-5-yl)isoxazole-5-carboxamide], the concentration for half-maximal inhibition (IC50) was not below 1000 nM.
For `CSc1nnc(NC(=O)c2cc(-c3cccc(=O)[nH]3)cc(=O)o2)s1` [Compound 276, N-(5-(methylthio)-1,3,4-thiadiazol-2-yl)-2-oxo-4-(6-oxo-1,6-dihydropyridin-2-yl)-2H-pyran-6-carboxamide] the value was 100 to 500 nM; for `CSc1nnc(NC(=O)c2onc3ccc(Sc4ccccc4)cc23)s1` [Compound 163, N-(5-(methylthio)-1,3,4-thiadiazol-2-yl)-5-(phenylthio)benzo[c]isoxazole-3-carboxamide], not below 1000 nM; for `O=C(Nc1nnc(-c2cccc(F)c2)s1)c1onc2ccccc12` [Compound 25, N-(5-(3-fluorophenyl)-1,3,4-thiadiazol-2-yl)benzo[c]isoxazole-3-carboxamide], not below 1000 nM.
For `CSc1nnc(NC(=O)c2cc3c(C)cc(F)cc3[nH]2)s1` [Compound 78, 6-fluoro-4-methyl-N-(5-(methylthio)-1,3,4-thiadiazol-2-yl)-1H-indole-2-carboxamide] the value was 500 to 1000 nM; for `CSc1nnc(NC(=O)c2onc3c2ccc2ccccc23)s1` [Compound 220, N-[5-(methylsulfanyl)-1,3,4-thiadiazol-2-yl]naphtho[1,2-c][1,2]oxazole-3-carboxamide], 100 to 500 nM.
